Test results reported in US10798941B2, “Microbiocidal oxadiazole derivatives” (SYNGENTA PARTICIPATIONS AG, priority 2016, dated 2020).

Columns and labels:
[1] = tested on: Puccinia recondita f. Sp. Tritici; assay: Puccinia recondita f. sp. tritici / wheat / leaf disc preventative (brown rust); assay type: in vivo; conditions: foliar, 168 h, 200 ppm in the applied formulation, wheat leaf segments cv. Kanzler, preventative, inoculated 1 day after application, assessed 7 to 9 days after application, vs untreated, read-out: disease control
Procedure, shortened: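 Preventative leaf-segment test: spray application of diluted formulated compound on wheat cv. Kanzler, spore inoculation after 1 day. Percent control relative to untreated segments rated 7 to 9 days post-application, with incubation at 19° C, 75% relative humidity, 12 h photoperiod.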

[2] = tested on: Glomerella Lagenarium (Colletotrichum Lagenarium); assay: Glomerella lagenarium (Colletotrichum lagenarium) liquid culture / cucumber / preventative (anthracnose); assay type: cell-based; conditions: Colletotrichum orbiculare; 20 ppm in the applied formulation; liquid culture in PDB, 24° C., inhibition of growth measured photometrically 3 to 4 days after application, vs untreated; read-out: disease control
Procedure, shortened: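 Conidia from cryogenic storage were mixed into potato dextrose broth. This was added to compound diluted from DMSO into 0.025% Tween20, tested at 20 ppm. Plates were incubated in the dark at 24 °C and 96% relative humidity, and growth was read photometrically after 2–7 days as % activity versus untreated check.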

Phakopsora pachyrhizi = Phakopsora pachyrhizi / soybean / leaf disc preventative (Asian soybean rust); assay type: in vivo; conditions: foliar, 288 h, 200 ppm in the applied formulation, soybean leaf disks, inoculated one day after application, assessed 12 to 14 days after application, vs untreated, read-out: disease control
Experimental: Leaf disks or leaf segments of various plant species are cut from plants grown in a greenhouse. The cut leaf disks or segments are placed in multiwell plates (24-well format) onto water agar. The leaf disks are sprayed with a test solution before (preventative) or after (curative) inoculation. Compounds to be tested are prepared as DMSO solutions (max. 10 mg/ml) which are diluted to the appropriate concentration with 0.025% Tween20 just before spraying. The inoculated leaf disks or segments are incubated under defined conditions (temperature, relative humidity, light, etc.) according to the respective test system. A single evaluation of disease level is carried out 3 to 14 days after inoculation, depending on the pathosystem. Percent disease control relative to the untreated check leaf disks or segments is then calculated.
Soybean leaf disks are placed on water agar in multiwell plates (24-well format) and sprayed with the formulated test compound diluted in water. One day after application leaf discs are inoculated by spraying a spore suspension on the lower leaf surface. After an incubation period in a climate cabinet of 24-36 hours in darkness at 20° C. and 75% rh leaf disc are kept at 20° C. with 12 h light/day and 75% rh. The activity of a compound is assessed as percent disease control compared to untreated when an appropriate level of disease damage appears in untreated check leaf disks (12 to 14 days after application).
The following compounds at 200 ppm in the applied formulation give at least 80% disease control in this test when compared to untreated control leaf disks under the same conditions, which show extensive disease development.

[3] = tested on: Puccinia recondita f. Sp. Tritici; assay: Puccinia recondita f. sp. tritici / wheat / leaf disc curative (brown rust); assay type: in vivo; conditions: foliar, 144 h, 200 ppm in the applied formulation, wheat leaf segments cv. Kanzler, applied 1 day after inoculation, assessed 6 to 8 days after application, vs untreated, read-out: disease control
Procedure, shortened: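 Compounds, prepared from DMSO solutions of at most 10 mg/ml and diluted just before spraying, are applied curatively to inoculated Kanzler wheat leaf segments. Segments are incubated at 19° C and 75% RH in a climate cabinet; disease control relative to untreated is evaluated 6 to 8 days later.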

FC(F)Sc1nc(-c2ccc(Cl)cc2)cn1Cc1ccc(-c2noc(C(F)(F)F)n2)cc1 [Compound 1.174, 3-[4-[[4-(4-chlorophenyl)-2-(difluoromethyl-sulfanyl)imidazol-1-yl]methyl]phenyl]-5-(trifluoromethyl)-1,2,4-oxadiazole]
≥ 80%: pest or weed control at 200 ppm [1] | inhibition of growth at 20 ppm [2] | pest or weed control at 200 ppm (Phakopsora pachyrhizi) | pest or weed control at 200 ppm [3]

FC(F)(F)c1nc(-c2ccc(Cn3cnc(I)c3)cc2)no1 [Compound 1.96, 3-[4-[(4-iodoimidazol-1-yl)methyl]phenyl]-5-(trifluoromethyl)-1,2,4-oxadiazole]
≥ 80%: pest or weed control at 200 ppm [1] | inhibition of growth at 20 ppm [2] | pest or weed control at 200 ppm (Phakopsora pachyrhizi) | pest or weed control at 200 ppm [3]

Cc1nc(Br)cn1Cc1ccc(-c2noc(C(F)(F)F)n2)cc1 [Compound 1.91, 3-[4-[(4-bromo-2-methyl-imidazol-1-yl)methyl]phenyl]-5-(trifluoromethyl)-1,2,4-oxadiazole]
≥ 80%: pest or weed control at 200 ppm [1] | inhibition of growth at 20 ppm [2] | pest or weed control at 200 ppm (Phakopsora pachyrhizi) | pest or weed control at 200 ppm [3]

O=Cc1ccn(Cc2ccc(-c3noc(C(F)(F)F)n3)cc2)n1 [Compound 1.85, 1-[[4-[5-(trifluoromethyl)-1,2,4-oxadiazol-3-yl]phenyl]methyl]pyrazole-3-carbaldehyde]
≥ 80%: pest or weed control at 200 ppm [1] | inhibition of growth at 20 ppm [2] | pest or weed control at 200 ppm (Phakopsora pachyrhizi) | pest or weed control at 200 ppm [3]

N#Cc1ncn(Cc2ccc(-c3noc(C(F)(F)F)n3)cc2)n1 [Compound 1.40, 1-[[4-[5-(trifluoromethyl)-1,2,4-oxadiazol-3-yl]phenyl]methyl]-1,2,4-triazole-3-carbonitrile]
≥ 80%: pest or weed control at 200 ppm [1] | inhibition of growth at 20 ppm [2] | pest or weed control at 200 ppm (Phakopsora pachyrhizi) | pest or weed control at 200 ppm [3]

COc1nc(Br)n(Cc2ccc(-c3noc(C(F)(F)F)n3)cc2)n1 [Compound 1.232, 3-[4-[(5-bromo-3-methoxy-1,2,4-triazol-1-yl)methyl]phenyl]-5-(trifluoromethyl)-1,2,4-oxadiazole]
≥ 80%: pest or weed control at 200 ppm [1] | inhibition of growth at 20 ppm [2] | pest or weed control at 200 ppm (Phakopsora pachyrhizi) | pest or weed control at 200 ppm [3]

COCc1nn(Cc2ccc(-c3noc(C(F)(F)F)n3)cc2)cc1C(=O)OC [Compound 1.238, methyl 3-(methoxymethyl)-1-[[4-[5-(trifluoromethyl)-1,2,4-oxadiazol-3-yl]phenyl]methyl]pyrazole-4-carboxylate]
≥ 80%: pest or weed control at 200 ppm [1] | inhibition of growth at 20 ppm [2] | pest or weed control at 200 ppm (Phakopsora pachyrhizi) | pest or weed control at 200 ppm [3]

FC(F)(F)c1nc(-c2ccc(Cn3cc4ccccc4n3)cc2)no1 [Compound 1.86, 3-[4-(indazol-2-ylmethyl)phenyl]-5-(trifluoromethyl)-1,2,4-oxadiazole]
≥ 80%: pest or weed control at 200 ppm [1] | inhibition of growth at 20 ppm [2] | pest or weed control at 200 ppm (Phakopsora pachyrhizi) | pest or weed control at 200 ppm [3]

COC(=O)c1cn(Cc2ccc(-c3noc(C(F)(F)F)n3)cc2)cn1 [Compound 1.88, methyl 1-[[4-[5-(trifluoromethyl)-1,2,4-oxadiazol-3-yl]phenyl]methyl]imidazole-4-carboxylate]
≥ 80%: pest or weed control at 200 ppm [1] | inhibition of growth at 20 ppm [2] | pest or weed control at 200 ppm (Phakopsora pachyrhizi) | pest or weed control at 200 ppm [3]

FC(F)(F)c1cn(Cc2ccc(-c3noc(C(F)(F)F)n3)cc2)cn1 [Compound 1.90]
≥ 80%: pest or weed control at 200 ppm [1] | inhibition of growth at 20 ppm [2] | pest or weed control at 200 ppm (Phakopsora pachyrhizi) | pest or weed control at 200 ppm [3]

COc1nc(N)nn1Cc1ccc(-c2noc(C(F)(F)F)n2)cc1 [Compound 1.215, 5-methoxy-1-[[4-[5-(trifluoromethyl)-1,2,4-oxadiazol-3-yl]phenyl]methyl]-1,2,4-triazol-3-amine]
≥ 80%: pest or weed control at 200 ppm [1] | inhibition of growth at 20 ppm [2] | pest or weed control at 200 ppm (Phakopsora pachyrhizi) | pest or weed control at 200 ppm [3]

CCCSc1ncn(Cc2ccc(-c3noc(C(F)(F)F)n3)cc2)n1 [Compound 1.206, 3-[4-[(3-propylsulfanyl-1,2,4-triazol-1-yl)methyl]phenyl]-5-(trifluoromethyl)-1,2,4-oxadiazole]
≥ 80%: pest or weed control at 200 ppm [1] | inhibition of growth at 20 ppm [2] | pest or weed control at 200 ppm (Phakopsora pachyrhizi) | pest or weed control at 200 ppm [3]

COCc1c(C(=O)OC)cnn1Cc1ccc(-c2noc(C(F)(F)F)n2)cc1 [Compound 1.239, methyl 5-(methoxymethyl)-1-[[4-[5-(trifluoromethyl)-1,2,4-oxadiazol-3-yl]phenyl]methyl]pyrazole-4-carboxylate]
≥ 80%: pest or weed control at 200 ppm [1] | inhibition of growth at 20 ppm [2] | pest or weed control at 200 ppm (Phakopsora pachyrhizi) | pest or weed control at 200 ppm [3]

Cc1cc(C)n(Cc2ccc(-c3noc(C(F)(F)F)n3)c(F)c2)n1 [Compound 1.253, 3-[4-[(3,5-dimethylpyrazol-1-yl)methyl]-2-fluoro-phenyl]-5-(trifluoromethyl)-1,2,4-oxadiazole]
≥ 80%: pest or weed control at 200 ppm [1] | inhibition of growth at 20 ppm [2] | pest or weed control at 200 ppm (Phakopsora pachyrhizi) | pest or weed control at 200 ppm [3]

FC(F)(F)c1nc(-c2ccc(Cn3cnc(-c4ccc(Cl)cc4)c3)cc2)no1 [Compound 1.229, 3-[4-[[4-(4-chlorophenyl)imidazol-1-yl]methyl]phenyl]-5-(trifluoromethyl)-1,2,4-oxadiazole]
≥ 80%: pest or weed control at 200 ppm [1] | inhibition of growth at 20 ppm [2] | pest or weed control at 200 ppm (Phakopsora pachyrhizi) | pest or weed control at 200 ppm [3]

COC(=O)c1cnn(Cc2ccc(-c3noc(C(F)(F)F)n3)cc2)c1C1CC1 [Compound 1.236, methyl 5-cyclopropyl-1-[[4-[5-(trifluoromethyl)-1,2,4-oxadiazol-3-yl]phenyl]methyl]pyrazole-4-carboxylate]
≥ 80%: pest or weed control at 200 ppm [1] | inhibition of growth at 20 ppm [2] | pest or weed control at 200 ppm (Phakopsora pachyrhizi) | pest or weed control at 200 ppm [3]

Nc1nc(C(F)(F)F)nn1Cc1ccc(-c2noc(C(F)(F)F)n2)cc1 [Compound 1.200, 5-(trifluoromethyl)-2-[[4-[5-(trifluoromethyl)-1,2,4-oxadiazol-3-yl]phenyl]methyl]-1,2,4-triazol-3-amine]
≥ 80%: pest or weed control at 200 ppm [1] | inhibition of growth at 20 ppm [2] | pest or weed control at 200 ppm (Phakopsora pachyrhizi) | pest or weed control at 200 ppm [3]

Nc1nc(C(F)F)nn1Cc1ccc(-c2noc(C(F)(F)F)n2)cc1 [Compound 1.222, 5-(difluoromethyl)-2-[[4-[5-(trifluoromethyl)-1,2,4-oxadiazol-3-yl]phenyl]methyl]-1,2,4-triazol-3-amine]
≥ 80%: pest or weed control at 200 ppm [1] | inhibition of growth at 20 ppm [2] | pest or weed control at 200 ppm (Phakopsora pachyrhizi) | pest or weed control at 200 ppm [3]

COC(=O)c1ncn(Cc2ccc(-c3noc(C(F)(F)F)n3)cc2)c1C(=O)OC [Compound 1.43, dimethyl 1-[[4-[5-(trifluoromethyl)-1,2,4-oxadiazol-3-yl]phenyl]methyl]imidazole-4,5-dicarboxylate]
≥ 80%: pest or weed control at 200 ppm [1] | inhibition of growth at 20 ppm [2] | pest or weed control at 200 ppm (Phakopsora pachyrhizi) | pest or weed control at 200 ppm [3]

Fc1cc(-c2noc(C(F)(F)F)n2)ccc1Cn1ccnc1 [Compound 1.129, 3-[3-fluoro-4-(imidazol-1-ylmethyl)phenyl]-5-(trifluoromethyl)-1,2,4-oxadiazole]
≥ 80%: pest or weed control at 200 ppm [1] | inhibition of growth at 20 ppm [2] | pest or weed control at 200 ppm (Phakopsora pachyrhizi) | pest or weed control at 200 ppm [3]

FC(F)(F)c1nc(-c2ccc(Cn3cnnc3SCc3ccccc3)cc2)no1 [Compound 1.213, 3-[4-[(3-benzylsulfanyl-1,2,4-triazol-4-yl)methyl]phenyl]-5-(trifluoromethyl)-1,2,4-oxadiazole]
≥ 80%: pest or weed control at 200 ppm [1] | inhibition of growth at 20 ppm [2] | pest or weed control at 200 ppm (Phakopsora pachyrhizi) | pest or weed control at 200 ppm [3]
